Experimental data reported in ChEMBL document CHEMBL5620397, “Design, synthesis and biological evaluation of 3-substituted-2-thioxothiazolidin-4-one (rhodanine) derivatives as antitubercular agents against Mycobacterium tuberculosis protein tyrosine phosphatase B” (Eur J Med Chem, 2023).
Converted amounts (≈) assume the structure as drawn.

Legend:
[1] = Metabolic stability in mouse liver microsomes assessed as intrinsic clearance per mg protein preincubated for 5 mins followed by NADPH addition and measured upto 30 mins by LC-MS/MS assay; assay type: ADME, Microsome; settings: time < 35 min, read-out: CLH
[2] = system: Mycobacterium tuberculosis; assay: Antituberculosis activity against Mycobacterium tuberculosis H37Rv in mouse J774A.1 cells assessed as reduction in intracellular bacterial burden at 10 ug/ml measured after 21 days by agar plate method; assay type: functional, J774.A1; parameters: scale not given: the % may be the effect or the level left; settings: dose 10 µg/ml; time 21 day
[3] = Metabolic stability in human liver microsomes assessed as intrinsic clearance per mg protein preincubated for 5 mins followed by NADPH addition and measured upto 30 mins by LC-MS/MS assay; assay type: ADME, Microsome; settings: time < 35 min, read-out: CLH
[4] = Metabolic stability in mouse liver microsomes in absence of NADPH by LC-MS/MS assay; assay type: ADME, Microsome
[5] = Metabolic stability in mouse liver microsomes assessed as half life preincubated for 5 mins followed by NADPH addition and measured upto 30 mins by LC-MS/MS assay; assay type: ADME, Microsome; settings: time < 35 min
[6] = Metabolic stability in human liver microsomes in absence of NADPH by LC-MS/MS assay; assay type: ADME, Microsome
[7] = biological target: T1, Tyrosine-protein phosphatase non-receptor type 1 (Homo sapiens, UniProt P18031); assay: Inhibition of recombinant human PTP1B using pNPP as substrate preincubated for 5 mins followed by substrate addition and measured for 10 mins; assay type: toxicity
T1 sequence (P18031 whole entry): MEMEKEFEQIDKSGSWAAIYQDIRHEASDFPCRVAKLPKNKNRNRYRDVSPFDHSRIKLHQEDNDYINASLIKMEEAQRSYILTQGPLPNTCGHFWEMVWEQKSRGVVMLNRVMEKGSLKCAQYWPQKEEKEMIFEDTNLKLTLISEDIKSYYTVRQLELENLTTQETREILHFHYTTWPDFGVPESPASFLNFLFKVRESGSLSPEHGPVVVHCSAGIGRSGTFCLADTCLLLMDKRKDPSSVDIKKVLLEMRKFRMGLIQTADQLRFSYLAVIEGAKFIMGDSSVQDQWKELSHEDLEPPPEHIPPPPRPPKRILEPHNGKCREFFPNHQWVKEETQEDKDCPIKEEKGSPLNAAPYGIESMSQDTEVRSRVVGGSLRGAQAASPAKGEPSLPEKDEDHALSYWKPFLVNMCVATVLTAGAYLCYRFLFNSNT

[8] = Permeability in human Caco-2 cells at 3 uM incubated for 90 mins by LC-MS/MS analysis; assay type: ADME, cell-based; settings: read-out: permeability
[9] = biological target: T2, Triple specificity protein phosphatase PtpB (Mycobacterium tuberculosis (strain ATCC 25618 / H37Rv)) (UniProt I6WXK4); assay: Inhibition of Mycobacterium tuberculosis H37Rv ptpB expressed in Escherichia coli BL21(DE3) at 50 uM using pNPP as substrate preincubated for 10 mins followed by substrate addition and measured for 5 mins by spectrophotometer analysis relative to control; settings: time 15.0 min
T2 sequence (whole entry): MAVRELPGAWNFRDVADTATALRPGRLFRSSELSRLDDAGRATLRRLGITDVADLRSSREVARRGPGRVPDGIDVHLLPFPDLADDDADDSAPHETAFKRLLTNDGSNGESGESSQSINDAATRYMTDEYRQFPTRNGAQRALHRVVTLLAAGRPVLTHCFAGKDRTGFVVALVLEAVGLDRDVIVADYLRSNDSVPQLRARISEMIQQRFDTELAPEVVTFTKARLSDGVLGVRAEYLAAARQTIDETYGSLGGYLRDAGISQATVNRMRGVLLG

[10] = Metabolic stability in mouse liver microsomes assessed as substrate remaining preincubated for 5 mins followed by NADPH addition and measured upto 30 mins by LC-MS/MS assay; assay type: ADME, Microsome; settings: time < 35 min, read-out: Stability
[11] = Metabolic stability in human liver microsomes assessed as substrate remaining preincubated for 5 mins followed by NADPH addition and measured upto 30 mins by LC-MS/MS assay; assay type: ADME, Microsome; settings: time < 35 min, read-out: Stability
Vero = assay: cells; settings: Chlorocebus sabaeus, 48 h
Description: Cytotoxicity against african green monkey Vero cells after 48 hrs by MTT assay

[12] = system: Mycobacterium tuberculosis; assay: Antituberculosis activity against Mycobacterium tuberculosis H37Rv by microplate alamar blue assay; assay type: functional
[13] = Metabolic stability in human liver microsomes assessed as half life preincubated for 5 mins followed by NADPH addition and measured upto 30 mins by LC-MS/MS assay; assay type: ADME, Microsome; settings: time < 35 min
[14] = system: Mycobacterium tuberculosis; assay: Antituberculosis activity against Mycobacterium tuberculosis H37Rv in mouse J774A.1 cells assessed as reduction in intracellular bacterial burden measured after 21 days by agar plate method; assay type: functional, organism-based; settings: J774.A1, dose 1-10 µg/ml, time 21.0 day
[15] = system: PTP1B versus M. tuberculosis ptpB; assay: Selectivity index, ratio of IC50 for human PTP1B to Mycobacterium tuberculosis H37Rv ptpB; assay type: toxicity; settings: read-out: Ratio IC50
[16] = biological target: T3, Low molecular weight protein-tyrosine phosphatase A (Mycobacterium tuberculosis, UniProt P9WIA1); assay: Inhibition of Mycobacterium tuberculosis H37Rv ptpA expressed in Escherichia coli BL21(DE3) using pNPP as substrate preincubated for 10 mins followed by substrate addition and measured for 5 mins by spectrophotometer analysis
T3 sequence (P9WIA1 whole entry): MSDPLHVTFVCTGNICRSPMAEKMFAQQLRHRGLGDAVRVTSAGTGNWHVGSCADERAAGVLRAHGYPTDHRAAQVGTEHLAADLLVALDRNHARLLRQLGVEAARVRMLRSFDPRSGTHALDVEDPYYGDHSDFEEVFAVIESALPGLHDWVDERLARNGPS

[17] = system: Mycobacterium tuberculosis; assay: Antituberculosis activity against Mycobacterium tuberculosis H37Rv in mouse J774A.1 cells assessed as reduction in bacterial burden at 10 ug/ml measured after 21 days in presence of RFP by agar plate method; assay type: functional, J774.A1; parameters: scale not given: the % may be the effect or the level left; settings: dose 10 µg/ml; time 21 day
[18] = Cytotoxicity against mouse J774.G8 cells after 48 hrs by MTT assay; assay type: functional, cell-based; settings: J774.G8, 48 h
[19] = biological target: T4, Triple specificity protein phosphatase PtpB (Mycobacterium tuberculosis (strain ATCC 25618 / H37Rv), UniProt I6WXK4); assay: Inhibition of Mycobacterium tuberculosis H37Rv ptpB expressed in Escherichia coli BL21(DE3) using pNPP as substrate preincubated for 10 mins followed by substrate addition and measured for 5 mins by spectrophotometer analysis
T4 sequence (I6WXK4 whole entry): T2 sequence (whole entry)

[20] = biological target: T4, Triple specificity protein phosphatase PtpB; assay: Inhibition of Mycobacterium tuberculosis H37Rv ptpB using pNPP as substrate preincubated for 10 mins followed by substrate addition and measured for 5 mins by spectrophotometer analysis
[21] = system: Mycobacterium tuberculosis; assay: Antituberculosis activity against Mycobacterium tuberculosis H37Rv in mouse J774A.1 cells assessed as reduction in intracellular bacterial burden at 0.5 ug/ml measured after 21 days by agar plate method; assay type: functional, J774.A1; parameters: scale not given: the % may be the effect or the level left; settings: dose 0.5 µg/ml; time 21 day

CCCC[C@@H](C(=O)O)N1C(=O)/C(=C/c2ccc(-c3cccc(C(F)(F)F)c3)cc2)SC1=S
microsomal CLint [1]: < 22.1 µL/min/mg | Activity [2]: >85% | microsomal CLint [3]: < 6.1 µL/min/mg | Stability [4]: Stable | half-life [5]: > 1.55 h | Stability [6]: Stable | IC50 [7]: 4.14 µM | Papp at 1.5 h, 3 µM [8]: 16.9 ×10⁻⁶ cm/s | inhibition [9]: 104% | remaining at 0.5 h [10]: 101% | remaining at 0.5 h [11]: 95.9% | IC50 (Vero): 32.2 µg/mL (≈ 67.1 µM) | MIC [12]: 31.1 µg/mL (≈ 64.9 µM) | half-life [13]: > 1.55 h | Activity [14]: Dose-Dependent Effect | selectivity ratio [15]: 7 | IC50 [16]: 4.06 µM | Activity [17]: >95% | IC50 [18]: 50.3 µg/mL (≈ 105 µM) | IC50 [19]: 0.64 µM

O=C1NC(=S)NC(=O)C1Cc1cc(Br)ccc1OCc1ccc(Cl)cc1
IC50 [20]: 22.4 µM | MIC [12]: > 32 µg/mL

CO[C@H]1/C=C/O[C@@]2(C)Oc3c(C)c(O)c4c(O)c(c(/C=N/N5CCN(C)CC5)c(O)c4c3C2=O)NC(=O)/C(C)=C\C=C\[C@H](C)[C@H](O)[C@@H](C)[C@@H](O)[C@@H](C)[C@H](OC(C)=O)[C@@H]1C [RIFAMPIN]
Activity [21]: >85% | IC50 (Vero): > 64 µg/mL | MIC [12]: 0.023 µg/mL (≈ 0.0279 µM) | IC50 [18]: > 64 µg/mL
